Data: ChEMBL document CHEMBL1697821, “Development of a phospholipidosis database and predictive quantitative structure-activity relationship (QSAR) models” (Toxicol Mech Methods, 2008)

Tested on: Phospholipidosis
Assay: Literature-mined public compounds from Kruhlak et al phospholipidosis modelling dataset

| SMILES | Phospholipidosis |
| --- | --- |
| Cc1cc(=O)n(-c2ccccc2)n1C.OC(O)C(Cl)(Cl)Cl.OC(O)C(Cl)(Cl)Cl [DICHLORALPHENAZONE] | Negative: based on the absence of positive reported data from WMDD |
| CC1(C)S[C@@H]2[C@H](NC(=O)[C@H](N)c3ccc(O)cc3)C(=O)N2[C@H]1C(=O)O [AMOXICILLIN] | Negative: based on the absence of positive reported data from WMDD |
| Nc1c(Br)cc(Br)cc1CN[C@H]1CC[C@H](O)CC1 [AMBROXOL] | Positive: weak inducer based on presence of foamy macrophages and cytoplasmic vacuolations |
| O=P(O)(O)OCC(O)CO (centres undefined) | Negative: based on the absence of positive reported data from WMDD |
| CC(=O)Oc1ccc(C(=C2CCCCC2)c2ccc(OC(C)=O)cc2)cc1 [CYCLOFENIL] | Negative: based on the absence of positive reported data from WMDD |
| C#C[C@]1(OC(C)=O)CC[C@H]2[C@@H]3CCC4=CC(=O)CC[C@@H]4[C@H]3CC[C@@]21C [NORETHINDRONE ACETATE] | Negative: based on the absence of positive reported data from WMDD |
| O[C@@H]([C@H](O)[C@H](O)CBr)[C@H](O)CBr [MITOBRONITOL] | Negative: based on the absence of positive reported data from WMDD |
| OCC(Br)(Br)Br [TRIBROMOETHANOL] | Negative: based on the absence of positive reported data from WMDD |
| CN(C)CCC=C1c2ccccc2C=Cc2c(Cl)cccc21 | Positive: strong inducer confirmed by electron microscopy |
| CCCCc1oc2ccccc2c1C(=O)c1cc(I)c(OCCN(CC)CC)c(I)c1 [AMIODARONE] | Positive: strong inducer confirmed by electron microscopy |
| C=C1/C(=C\C=C2/CCC[C@]3(C)[C@@H]([C@H](C)CCCC(C)(C)O)CC[C@@H]23)C[C@@H](O)C[C@@H]1O [CALCITRIOL] | Negative: based on the absence of positive reported data from WMDD |
| COc1ccc(CC2c3cc(OC)c(OC)cc3CC[N+]2(C)CCC(=O)OCCCCCOC(=O)CC[N+]2(C)CCc3cc(OC)c(OC)cc3C2Cc2ccc(OC)c(OC)c2)cc1OC (centres undefined) | Negative: based on the absence of positive reported data from WMDD |
| COc1cccc2c1C(=O)c1c(O)c3c(c(O)c1C2=O)C[C@@](O)(C(=O)CO)C[C@@H]3O[C@H]1C[C@H](N)[C@H](O)[C@H](C)O1 [DOXORUBICIN] | Negative: confirmed by electron microscopy |
| NC[C@H]1Cc2ccc(F)cc2[C@@H](c2ccccc2)O1 | Positive: strong inducer confirmed by electron microscopy |
| CN1CCN(CCCCN2C(=O)CN(/N=C/c3ccc(-c4ccc(Cl)cc4)o3)C2=O)CC1.Cl.Cl [AZIMILIDE DIHYDROCHLORIDE] | Positive: weak inducer based on presence of foamy macrophages and cytoplasmic vacuolations |
| Cc1ccc(C)c(OCCCC(C)(C)C(=O)O)c1 [GEMFIBROZIL] | Negative: confirmed by electron microscopy |
| Cc1cc(C)cc(OCC2CNC(=O)O2)c1 (centres undefined) [METAXALONE] | Negative: based on the absence of positive reported data from WMDD |
| CC(C)COCC(CN(Cc1ccccc1)c1ccccc1)N1CCCC1 (centres undefined) [BEPRIDIL] | Negative: based on the absence of positive reported data from WMDD |
| CNC[C@H](O)c1ccc(O)c(O)c1 [EPINEPHRINE] | Negative: based on the absence of positive reported data from WMDD |
| CCN(CC)CCNc1ccc(C)c2sc3ccccc3c(=O)c12 [LUCANTHONE] | Negative: based on the absence of positive reported data from WMDD |

| SMILES | Phospholipidosis |
| --- | --- |
| CC(C)(C(=O)c1cccnc1)c1cccnc1 [METYRAPONE] | Negative: based on the absence of positive reported data from WMDD |
| CNCCCN1c2ccccc2CCc2ccccc21 [DESIPRAMINE] | Positive: weak inducer based on presence of foamy macrophages and cytoplasmic vacuolations |
| O=C(CCCN1CCC(O)(c2cccc(C(F)(F)F)c2)CC1)c1ccc(F)cc1 [TRIFLUPERIDOL] | Negative: based on the absence of positive reported data from WMDD |
| CCOC(=O)[C@H](CCc1ccccc1)N[C@@H](C)C(=O)N1Cc2cc(OC)c(OC)cc2C[C@H]1C(=O)O [MOEXIPRIL] | Negative: based on the absence of positive reported data from WMDD |
| CC[C@@H](C(N)=O)N1CCCC1=O | Negative: based on the absence of positive reported data from WMDD |
| CN[C@H]1CC[C@@H](c2ccc(Cl)c(Cl)c2)c2ccccc21 [SERTRALINE] | Positive: weak inducer based on presence of foamy macrophages and cytoplasmic vacuolations |
| O=NN(CCCl)C(=O)NCCCl [CARMUSTINE] | Negative: based on the absence of positive reported data from WMDD |
| CN[C@@H]1[C@H](O)[C@H](NC)[C@H]2O[C@@]3(O)C(=O)C[C@@H](C)O[C@H]3O[C@@H]2[C@H]1O [SPECTINOMYCIN] | Positive: weak inducer based on presence of foamy macrophages and cytoplasmic vacuolations |
| CNCCCC12CCC(c3ccccc31)c1ccccc12 [MAPROTILINE] | Positive: strong inducer confirmed by electron microscopy |
| CCCCCCc1ccc(O)cc1O [HEXYLRESORCINOL] | Negative: based on the absence of positive reported data from WMDD |
| NC(=O)NC(=O)Cc1ccccc1 [PHENACEMIDE] | Negative: based on the absence of positive reported data from WMDD |
| CN(C)CCON=C1c2ccccc2CCc2ccccc21 [NOXIPTILINE] | Positive: weak inducer based on presence of foamy macrophages and cytoplasmic vacuolations |
| NCCCC[C@H](N)C(=O)O [LYSINE] | Negative: based on the absence of positive reported data from WMDD |
| CCNC(C)Cc1cccc(C(F)(F)F)c1 (centres undefined) [FENFLURAMINE] | Positive: strong inducer confirmed by electron microscopy |
| CC1=CC(=O)c2ccccc2C1=O [MENADIONE] | Negative: confirmed by electron microscopy |
| COc1cc(C(=O)N2CCOCC2)cc(OC)c1OC [TRIMETOZINE] | Negative: based on the absence of positive reported data from WMDD |
| CCCN1C[C@H](CSC)C[C@@H]2c3cccc4[nH]cc(c34)C[C@H]21 [PERGOLIDE] | Negative: based on the absence of positive reported data from WMDD |
| CN1CCN(Cc2nc3cccc4c3c([n+]2[O-])-c2ccccc2-4)CC1 | Positive: weak inducer based on presence of foamy macrophages and cytoplasmic vacuolations |
| Cc1cn([C@H]2C[C@H](N=[N+]=[N-])[C@@H](CO)O2)c(=O)[nH]c1=O [ZIDOVUDINE] | Negative: confirmed by electron microscopy |
| CC(C)(C)c1ccc(CN2CCN(C(c3ccccc3)c3ccc(Cl)cc3)CC2)cc1 (centres undefined) [BUCLIZINE] | Negative: based on the absence of positive reported data from WMDD |

| SMILES | Phospholipidosis |
| --- | --- |
| C[N+]1(C)CCCC(OC(=O)C(O)(c2ccccc2)c2ccccc2)C1.[Br-] (centres undefined) [MEPENZOLATE BROMIDE] | Negative: based on the absence of positive reported data from WMDD |
| C[N+](C)(C)CC(=O)O [BETAINE] | Negative: based on the absence of positive reported data from WMDD |
| CCC[C@@H]1C[C@@H](C(=O)N[C@@H]([C@H]2O[C@H](SC)[C@H](O)[C@@H](O)[C@H]2O)[C@H](C)Cl)N(C)C1 [CLINDAMYCIN] | Positive: strong inducer confirmed by electron microscopy |
| CN(C)C/C=C(/c1ccc(Br)cc1)c1cccnc1 [ZIMELDINE] | Positive: strong inducer confirmed by electron microscopy |
| CNCCCC1c2ccccc2C=Cc2ccccc21 [PROTRIPTYLINE] | Negative: based on the absence of positive reported data from WMDD |
| CN1C(=O)OC(C)(C)C1=O [TRIMETHADIONE] | Negative: based on the absence of positive reported data from WMDD |
| OCCN1CCN(CCCN2c3ccccc3C=Cc3ccccc32)CC1 [OPIPRAMOL] | Negative: based on the absence of positive reported data from WMDD |
| CCCOC(=O)c1ccc(O)cc1 [PROPYLPARABEN] | Negative: based on the absence of positive reported data from WMDD |
| CO[C@@H]1[C@@H](OC(N)=O)[C@@H](O)[C@H](Oc2ccc3c(O)c(NC(=O)c4ccc(O)c(CC=C(C)C)c4)c(=O)oc3c2C)OC1(C)C [NOVOBIOCIN] | Negative: based on the absence of positive reported data from WMDD |
| Cc1ccc(C(=O)Nc2ccc(S(=O)(=O)O)c3cc(S(=O)(=O)O)cc(S(=O)(=O)O)c23)cc1NC(=O)c1cccc(NC(=O)Nc2cccc(C(=O)Nc3cc(C(=O)Nc4ccc(S(=O)(=O)O)c5cc(S(=O)(=O)O)cc(S(=O)(=O)O)c45)ccc3C)c2)c1 [SURAMIN] | Positive: weak inducer based on presence of foamy macrophages and cytoplasmic vacuolations |
| Clc1ccc2nsnc2c1NC1=NCCN1 [TIZANIDINE] | Negative: based on the absence of positive reported data from WMDD |
| CCOC(=O)N1CCC(=C2c3ccc(Cl)cc3CCc3cccnc32)CC1 [LORATADINE] | Positive: weak inducer based on presence of foamy macrophages and cytoplasmic vacuolations |
| CCC1(C)OC(=O)N(C)C1=O (centres undefined) [PARAMETHADIONE] | Negative: based on the absence of positive reported data from WMDD |
| CN(C)CCOC(c1ccc(Cl)cc1)c1ccccn1 (centres undefined) [CARBINOXAMINE] | Negative: based on the absence of positive reported data from WMDD |
| CC(C)/N=c1\cc2n(-c3ccc(Cl)cc3)c3ccccc3nc-2cc1Nc1ccc(Cl)cc1 [CLOFAZIMINE] | Negative: based on the absence of positive reported data from WMDD |
| Cc1ccsc1C(=CCCN1CCC[C@@H](C(=O)O)C1)c1sccc1C [TIAGABINE] | Negative: based on the absence of positive reported data from WMDD |
| CCCCCCCCCC(=O)OCCN1CCN(CCCN2c3ccccc3Sc3ccc(C(F)(F)F)cc32)CC1 [FLUPHENAZINE DECANOATE] | Negative: based on the absence of positive reported data from WMDD |
| CC(=O)[C@@]1(O)CC[C@H]2[C@@H]3C=C(Cl)C4=CC(=O)CC[C@]4(C)[C@H]3CC[C@@]21C [CHLORMADINONE] | Negative: based on the absence of positive reported data from WMDD |
| CC(=O)CCCCn1c(=O)c2c(ncn2C)n(C)c1=O [PENTOXIFYLLINE] | Negative: based on the absence of positive reported data from WMDD |
